These results are taken from US8507505B2, “Dihydropyrazolopyrimidinone derivative” (MSD K.K., priority 2008, dated 2013).

One test deals with T1, Wee1 kinase (Homo sapiens, UniProt P30291).
T1 construct: made in house; host or cells: Sf9 insect cells (recombinant baculovirus)
Put plainly: Wee1 kinase inhibitory effect (Pharmacological Test 1). The class given is biochemical. The following applies: purified GST-tagged Wee1 kinase, Poly(Lys, Tyr) substrate, 10 μM ATP, 30° C. for 30 minutes; read-out: Weel Inhibition Activity (IC50). From the text:
The following describes exemplary pharmacological tests of a compound of the present invention._Pharmacological Test 1 (Wee1 kinase inhibitory effect)
A cDNA of Wee1 kinase with glutathione-S-transferase (GST) fused at the amino terminal thereof was inserted into a baculovirus expression vector to construct a recombinant baculovirus, with which cells of an insect cell line Sf9 were infected to overexpress the target protein. The infected cells were collected and lysed, and then the GST-tagged Wee1 kinase protein was adsorbed to a glutathione column and eluted from the column with glutathione, and the active fraction was desalted in a desalting column to give a purified enzyme.
In measurement of the Wee1 kinase activity, a synthetic peptide, Poly(Lys, Tyr) hydrobromide (Lys:Tyr (4:1)) purchased from Sigma was used as the substrate.
The amount of the reaction mixture was 21.1 μL; and the composition of the reaction buffer was 50 mM Tris-HCl buffer (pH 7.4)/10 mM magnesium chloride/1 mM dithiothreitol. The purified Wee1 kinase, 2.5 μg of the substrate peptide, 10 μM of non-labeled adenosine triphosphate (ATP) and 1 μCi of [γ-^33P]-labeled ATP (2500 Ci/mmol or more) were added to the reaction buffer, and the resulting mixture was incubated at 30° C. for 30 minutes. Thereafter, 10 μL of 350 mM phosphate buffer was added to the reaction system to stop the reaction. The substrate peptide was adsorbed on a P81 paper filter 96-well plate and the plate was washed several times with 130 mM phosphate buffer, and the radioactivity thereof was counted using a liquid scintillation counter. The [γ-^33P]-labeled ATP was purchased from Amersham Bioscience, Ltd.
The addition of a test compound to the reaction system was carried out by preparing a series of dilutions of the compound with dimethyl sulfoxide (DMSO) and adding 1.1 μL of each dilution to the reaction system. As a control, 1.1 μL of DMSO was added to the reaction system.

Test [1] deals with Cdc2 (Cdk1) tyrosine-15 phosphorylation in NCI-H1299 cells. Put plainly: Inhibitory effect on Cdc2 (Cdk1) tyrosine-15 phosphorylation in cells (Pharmacological Test 2, NCI-H1299 method). It is filed as cell-based. The conditions noted are these: Homo sapiens, 200 nM camptothecin 16 hours, then test compound with nocodazole 8 hours, ELISA ratio of tyrosine-15-phosphorylated Cdc2 to Cdc2, read-out: Cdc2-Tyrosine 15 Phosphorylation Inhibiting Effect. An excerpt: Pharmacological Test 2 (Method for determining drug effect using cells (inhibitory effect on Cdc2 (Cdk1) tyrosine-15 phosphorylation))
Fetal bovine serum (FBS) was purchased from Morgate, Inc.; an RPMI-1640 medium and a DMEM medium were purchased from Invitrogen, Inc.; camptothecin was purchased from Sigma Co.; gemcitabine was purchased from Eli Lilly Japan K.K.; nocodazole and protease inhibitor cocktail were purchased from Sigma Co.; a rabbit anti-Cdc2 antibody and a mouse anti-Cdc2 antibody were purchased from Santa Cruz Biotechnology, Inc.; a rabbit anti-tyrosine-15-phosphorylated Cdc2 antibody and a horseradish peroxidase-labeled anti-mouse IgG antibody were purchased from Cell Signaling Technology, Inc.; and Sure Blue Reserve TMB peroxidase substrate was purchased from Kirkegaard & Perry Laboratories, Inc.
A human non-small cell lung cancer cell line (NCI-H1299) and a human colon cancer cell line (WiDr) can be obtained from American Type Culture Collection (ATCC).
In the method using NCI-H1299 cells, the cells were suspended in an RPMI-1640 medium supplemented with 10% FBS, and 100 μL of the resulting cell suspension was dispensed in a Nunclon Delta treated 96-well plastic plate purchased from Nunc, Inc. at a density of 2000 cells per well, and the plate was incubated overnight at 37° C. under an atmosphere of 5% CO2 and 95% air. Camptothecin was dissolved in dimethyl sulfoxide (DMSO) and further the resulting solution was diluted with an RPMI-1640 medium supplemented with 10% FBS. Then, 50 μL of the diluted solution was added to each well of the plate in which the cells were seeded in advance such that the final concentration of camptothecin was 200 nM, and the plate was incubated at 37° C. under an atmosphere of 5% CO2 and 95% air for 16 hours. A test compound was serially diluted with DMSO, and further diluted with an RPMI-1640 medium supplemented with 10% FBS containing 4000 nM nocodazole. Then, 50 μL of the test compound solution was added to each well of the plate in which the cells treated with camptothecin were seeded, and the plate was incubated at 37° C. under an atmosphere of 5% CO2 and 95% air for 8 hours. Then, the culture medium was removed from each well and […] of a cell lysis buffer was added to each well, and the plate was shaken at 4° C. for 2 hours, and thereafter the liquid in the plate was frozen at −80° C. and then thawed, which was used as a lysed cell solution. Cdc2 and tyrosine-15-phosphorylated Cdc2 in this lysed cell solution were measured by an enzyme-linked immunosorbent assay (ELISA method), and a ratio of tyrosine-15-phosphorylated Cdc2 to Cdc2 was calculated to determine a 50% effective concentration (EC50, nM) of the test compound for inhibition of phosphorylation in cells. The cell lysis buffer as used herein is an aqueous solution […] containing 20 mM HEPES (pH 7.5), 150 mM sodium chloride, 1 mM disodium ethylenediamine tetraacetate, 0.1% polyoxyethylene (10) octylphenyl ether, 1% protease inhibitor cocktail, 1 mM dithiothreitol, 2 mM sodium orthovanadate, 10 mM sodium fluoride and 10 mM glycerol diphosphate. The measurement of Cdc2 by the ELISA method was carried out as follows. 50 μL of a solution of a rabbit anti-Cdc2 antibody obtained by diluting the antibody to 200 times with 50 mM carbonate-bicarbonate buffer (pH 9.6) was dispensed into each well of a 96-well Maxisorb immunoplate purchased from Nunc, Inc., and the immunoplate was let stand overnight at 4° C. to immobilize the antibody thereto. Subsequently, each well was washed three times with phosphate buffered saline (PBS), and 300 μL of PBS containing 5% bovine serum albumin (5% BSA/PBS) was added to each well, and then, the immunoplate was let stand at room temperature for 2 hours. […]
For orientation: In an ELISA, binding on a coated surface is turned into a signal by an enzyme label.

T1 sequence (P30291 whole entry): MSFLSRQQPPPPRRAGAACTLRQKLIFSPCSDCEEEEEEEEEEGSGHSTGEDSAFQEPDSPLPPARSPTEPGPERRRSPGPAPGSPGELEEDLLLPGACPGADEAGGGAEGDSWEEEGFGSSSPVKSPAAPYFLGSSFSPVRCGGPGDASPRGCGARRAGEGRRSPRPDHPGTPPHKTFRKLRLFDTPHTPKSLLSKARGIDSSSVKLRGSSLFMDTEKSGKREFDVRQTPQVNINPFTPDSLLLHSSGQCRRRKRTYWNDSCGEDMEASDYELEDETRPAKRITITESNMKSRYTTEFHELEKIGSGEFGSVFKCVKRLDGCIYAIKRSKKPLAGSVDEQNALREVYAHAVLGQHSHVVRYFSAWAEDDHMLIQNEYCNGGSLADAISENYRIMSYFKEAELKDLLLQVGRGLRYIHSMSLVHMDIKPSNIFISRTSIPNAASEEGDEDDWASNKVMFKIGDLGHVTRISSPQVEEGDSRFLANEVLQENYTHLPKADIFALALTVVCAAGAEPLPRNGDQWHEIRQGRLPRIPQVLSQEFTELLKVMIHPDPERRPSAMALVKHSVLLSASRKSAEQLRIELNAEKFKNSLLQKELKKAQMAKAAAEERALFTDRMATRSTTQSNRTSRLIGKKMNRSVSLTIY

On to `Cn1c(=O)n(-c2c(Cl)cccc2Cl)c(=N)c2cnc(Nc3ccc(N4CCN(CCO)CC4)cc3)nc21` [Example 1, 3-(2,6-Dichlorophenyl)-7-({4-[4-(2-hydroxyethyl)piperazin-1-yl]phenyl}amino)-4-imino-1-methyl-3,4-dihydropyrimido[4,5-d]pyrimidin-2(1H)-one], for which, at Wee1 kinase, the IC50 – broadly, the point on the concentration scale where inhibition reaches its midpoint – came out at 4 nM. In addition, in test [1], the EC50 was 71 nM.
Regarding `Cn1c(=O)n(-c2c(Cl)cccc2Cl)c(=N)c2cnc(Nc3ccc(N4CCOC(CO)C4)cc3)nc21` (stereo not shown) [Example 2, 3-(2,6-Dichlorophenyl)-7-({4-[2-(hydroxymethyl)morpholin-4-yl]phenyl}amino)-4-imino-1-methyl-3,4-dihydropyrimido[4,5-d]pyrimidin-2(1H)-one], on Wee1 kinase, the IC50 was found to be 2 nM. Further, the EC50 in test [1] was found to be 86 nM.
With `CN(C)CC(=O)N1CCN(c2ccc(Nc3ncc4c(=N)n(-c5c(Cl)cccc5Cl)c(=O)n(C)c4n3)cc2)CC1` [Example 3, 3-(2,6-Dichlorophenyl)-7-[(4-{4-[(dimethylamino)acetyl]piperazin-1-yl}phenyl)amino]-4-imino-1-methyl-3,4-dihydropyrimido[4,5-d]pyrimidin-2(1H)-one], the IC50 on Wee1 kinase was found to be 12 nM. In test [1], the EC50 was found to be 45 nM.
With `CN(C)CC1CN(c2ccc(Nc3ncc4c(=N)n(-c5c(Cl)cccc5Cl)c(=O)n(C)c4n3)cc2)CCO1` (stereo not shown) [Example 4, 3-(2,6-Dichlorophenyl)-7-[(4-{2-[(dimethylamino)methyl]morpholin-4-yl}phenyl)amino]-4-imino-1-methyl-3,4-dihydropyrimido[4,5-d]pyrimidin-2(1H)-one], the IC50 at Wee1 kinase was determined as 10 nM. Moreover, the EC50 in test [1] was 34 nM.
Taken in the same sequence, the figures for `CN1CCN(c2ccc(Nc3ncc4c(=N)n(-c5c(Cl)cccc5Cl)c(=O)[nH]c4n3)cc2)CC1` [Example 5, 3-(2,6-Dichlorophenyl)-4-imino-7-{[4-(4-methylpiperazin-1-yl)phenyl]amino}-3,4-dihydropyrimido[4,5-d]pyrimidin-2(1H)-one] were 17 nM and 66 nM.
On to `Cc1cc(Nc2ncc3c(=N)n(-c4c(Cl)cccc4Cl)c(=O)[nH]c3n2)ccc1N1CCN(C)CC1` [Example 6, 3-(2,6-Dichlorophenyl)-4-imino-7-{[3-methyl-4-(4-methylpiperazin-1-yl)phenyl]amino}-3,4-dihydropyrimido[4,5-d]pyrimidin-2(1H)-one], for which the IC50 at Wee1 kinase worked out at 8 nM. Besides, the EC50 in test [1] came to 25 nM.
As to `CN1CCN(c2ccc(Nc3ncc4c(=N)n(-c5c(Cl)cccc5Cl)c(=O)n(C)c4n3)cc2)CC1` [Example 7, 3-(2,6-Dichlorophenyl)-4-imino-1-methyl-7-{[4-(4-methylpiperazin-1-yl)phenyl]amino}-3,4-dihydropyrimido[4,5-d]pyrimidin-2(1H)-one], the IC50 at Wee1 kinase was determined as 6 nM.
Turning to `CN(C)[C@@H]1CCN(c2ccc(Nc3ncc4c(=N)n(-c5c(Cl)cccc5Cl)c(=O)[nH]c4n3)cc2)C1` [Example 8, 3-(2,6-Dichlorophenyl)-7-({4-[(3R)-3-dimethylaminopyrrolidin-1-yl]phenyl}amino)-4-imino-3,4-dihydropyrimido[4,5-d]pyrimidin-2(1H)-one], the IC50 on Wee1 kinase is 17 nM. Besides, the EC50 in test [1] came out at 75 nM.
For the compound `CN1CC2CCN(c3ccc(Nc4ncc5c(=N)n(-c6c(Cl)cccc6Cl)c(=O)[nH]c5n4)cc3)C2C1` (stereo not shown) [Example 9, 3-(2,6-Dichlorophenyl)-4-imino-7-{[4-(5-methylhexahydropyrrolo[3,4-b]pyrrol-1(2H)-yl)phenyl}amino)-3,4-dihydropyrimido[4,5-d]pyrimidin-2(1H)-one], the IC50 on Wee1 kinase was 16 nM. In addition, the EC50 in test [1] stood at 110 nM.
For `CN1CCC2(CCCN(c3ccc(Nc4ncc5c(=N)n(-c6c(Cl)cccc6Cl)c(=O)[nH]c5n4)cc3)C2)C1` (stereo not shown) [Example 10, 3-(2,6-Dichlorophenyl)-4-imino-7-{[4-(2-methyl-2,7-diazaspiro[4,5]dec-7-yl)phenyl}amino)-3,4-dihydropyrimido[4,5-d]pyrimidin-2(1H)-one], the IC50 at Wee1 kinase came out at 18 nM. Also, the EC50 in test [1] is 110 nM.
